Earlier results, collected in patent US20230046963A1, “METHOD FOR DYEING KERATINOUS MATERIAL, COMPRISING THE USE OF AN ORGANOSILICON COMPOUND, A DYEING COMPOUND AND A PRE-TREATMENT AGENT” (Henkel AG & Co. KGaA, priority 2019, published 2023).

Conditions: 25° C.

| solubility in water | solubility in water (in words) | Compound |
| --- | --- | --- |
| 20 mg/mL |  | mixture of the sodium salts of mono- and disulfonic acids of 2-(2-quinolyl)-1H-indene-1,3(2H)-dione [Acid Yellow 3] |
| 2.5 mg/mL |  | Nc1cc(S(=O)(=O)[O-])cc2cc(S(=O)(=O)[O-])c(N=Nc3ccccc3)c(O)c12.[Na+].[Na+] [Acid Red 33, disodium salt of 5-amino-4-hydroxy-3-(phenylazo)-naphthalene-2,7-disulphonate] |
|  | readily soluble in water | O=C([O-])C1=NN(c2ccc(S(=O)(=O)[O-])cc2)C(=O)C1N=Nc1ccc(S(=O)(=O)[O-])cc1.[Na+].[Na+].[Na+] (centres unmarked) [Acid Yellow 23, trisodium salt of 4,5-dihydro-5-oxo-1-(4-sulfophenyl)-4-((4-sulfophenyl)azo)-1H-pyrazole-3-carboxylic acid] |
| more than 7 g/L |  | O=S(=O)([O-])c1ccc(N=Nc2c(O)ccc3ccccc23)cc1.[Na+] [Acid Orange 7, sodium salt of 4-[(2-hydroxy-1-naphthyl)azo]benzenesulfonate] |

| Compound | solubility in water | solubility in water (in words) |
| --- | --- | --- |
| O=C([O-])c1c(Cl)c(Cl)c(Cl)c(Cl)c1-c1c2c(Br)cc(=O)c(Br)c-2oc2c(Br)c(O)cc(Br)c12.O=C([O-])c1c(Cl)c(Cl)c(Cl)c(Cl)c1-c1c2c(Br)cc(=O)c(Br)c-2oc2c(Br)c(O)cc(Br)c12.[Na+].[Na+] [Acid Red 92, disodium salt of 3,4,5,6-tetrachloro-2-(1,4,5,8-tetrabromo-6-hydroxy-3-oxoxanthen-9-yl)benzoic acid] | greater than 10 g/L |  |
